# Experimental data: ChEMBL document CHEMBL4364281, “Design of wogonin-inspired selective cyclin-dependent kinase 9 (CDK9) inhibitors with potent in vitro and in vivo antitumor activity” (Eur J Med Chem, 2019)
# The source made the active and inactive calls. No cut-off for these calls is given here.
# Assays:
# MV4-11 [1] = assay: Cell cycle arrest in human MV4-11 cells assessed as accumulation at G1 phase at 0.25 uM after 24 hrs after 24 hrs by propidium iodide staining based flow cytometry (reference value: 41.20%); type: functional
# MV4-11 [2] = assay: Antitumor activity against human MV4-11 cells xenografted in BALB/c mouse assessed as tumour growth inhibition at 45 mg/kg, iv administered every other day for 21 days relative to control; type: functional; conditions: MV4-11, iv, 504 h, read-out: TGI
# RPMI-8226 = assay: Antiproliferative activity against human RPMI8226 cells assessed as reduction in cell viability after 72 hrs by MTT assay; type: functional, cell-based; conditions: RPMI-8226, 72 h
# MV4-11 [3] = assay: Cell cycle arrest in human MV4-11 cells assessed as accumulation at G2 phase at 0.25 uM after 24 hrs propidium iodide staining based flow cytometry (reference value: 22.73%); type: functional
# BT-549 = assay: Antiproliferative activity against human BT549 cells assessed as reduction in cell viability after 72 hrs by MTT assay; type: functional, cell-based; conditions: BT-549, 72 h
# MV4-11 [4] = assay: Cell cycle arrest in human MV4-11 cells assessed as accumulation at S phase at 1.25 uM after 24 hrs propidium iodide staining based flow cytometry (reference value: 26.06%); type: functional
# physchem [5] = conditions: methanesulfonic acid buffer, pH 4.5
# Description: Solubility of compound in methanesulfonic acid buffer at pH 4.5
# A549 = assay: cells; conditions: Homo sapiens, A549, 72 h
# Description: Antiproliferative activity against human A549 cells assessed as reduction in cell viability after 72 hrs by MTT assay
# MV4-11 [6] = assay: Induction of apoptosis in human MV4-11 cells assessed as increase in caspase-3 level after 24 hrs by Western blot analysis; type: functional, cell-based
# [7] = molecular target: Cyclin-dependent kinase 9 (Homo sapiens) (UniProt P50750); assay: Inhibition of CDK9 in human MV4-11 cells assessed as inhibition of RNA polymerase 2 phosphorylation at S2 residue after 4 hrs by Western blot analysis; type: cell-based
# Chain of Cyclin-dependent kinase 9 (Homo sapiens) (P50750 whole entry): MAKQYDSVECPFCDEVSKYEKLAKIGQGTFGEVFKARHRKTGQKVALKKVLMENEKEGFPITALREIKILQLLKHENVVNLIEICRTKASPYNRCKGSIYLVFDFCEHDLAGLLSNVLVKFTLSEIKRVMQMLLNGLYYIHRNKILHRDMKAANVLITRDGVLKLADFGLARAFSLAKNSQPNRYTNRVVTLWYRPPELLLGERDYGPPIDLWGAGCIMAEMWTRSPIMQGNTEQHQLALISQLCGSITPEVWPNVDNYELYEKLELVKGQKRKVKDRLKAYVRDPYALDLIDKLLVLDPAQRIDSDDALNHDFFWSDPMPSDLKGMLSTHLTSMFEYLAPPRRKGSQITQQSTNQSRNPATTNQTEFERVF
# MV4-11 [8] = assay: Cell cycle arrest in human MV4-11 cells assessed as accumulation at G2 phase at 1.25 uM after 24 hrs propidium iodide staining based flow cytometry (reference value: 22.73%); type: functional
# CCRF-CEM = assay: Antiproliferative activity against human CEM cells assessed as reduction in cell viability after 72 hrs by MTT assay; type: functional, cell-based
# MV4-11 [9] = assay: Induction of apoptosis in human MV4-11 cells assessed as necrotic cells at 0.05 uM after 24 hrs by Annexin-V/propidium iodide staining based flow cytometric method (reference value: 2.64%); type: functional
# HEK293 = assay: Cytotoxicity against human HEK293 cells assessed as reduction in cell viability after 72 hrs by MTT assay; type: cell-based; conditions: HEK293, 72 h
# CDK2/Cyclin A2 = CDK2/Cyclin A2 (Homo sapiens, UniProt P24941)
# Description: Inhibition of human CDK2/cyclin-A2 using H1 histone as substrate after 2 hrs by [gamma-33P]-ATP assay
# MV4-11 [10] = assay: Induction of apoptosis in human MV4-11 cells assessed as late apoptotic cells at 0.25 uM after 24 hrs by Annexin-V/propidium iodide staining based flow cytometric method (reference value: 0.07%); type: functional
# MCF7 = assay: Antiproliferative activity against human MCF7 cells assessed as reduction in cell viability after 72 hrs by MTT assay; type: functional, cell-based; conditions: MCF7, 72 h
# MV4-11 [11] = assay: Induction of apoptosis in human MV4-11 cells assessed as early apoptotic cells at 0.05 uM after 24 hrs by Annexin-V/propidium iodide staining based flow cytometric method (reference value: 0.36%); type: functional
# SW480 = assay: Antiproliferative activity against human SW480 cells assessed as reduction in cell viability after 72 hrs by MTT assay; type: functional, cell-based; conditions: SW480, 72 h
# MV4-11 [12] = assay: Induction of apoptosis in human MV4-11 cells assessed as effect on BCL-2 expression after 4 hrs by Western blot analysis; type: functional, cell-based
# [13] = Toxicity in BALB/c mouse assessed as effect on body weight at 15 to 45 mg/kg, iv administered every other day for 21 days; type: organism-based; conditions: in vivo, 504 h
# physchem [14] = conditions: buffer, pH 7.4
# Description: Hydrophobicity, log D of compound at pH 7.4
# MV4-11 [15] = assay: Induction of apoptosis in human MV4-11 cells assessed as late apoptotic cells at 0.05 uM after 24 hrs by Annexin-V/propidium iodide staining based flow cytometric method (reference value: 0.07%); type: functional
# L02 = assay: Cytotoxicity against human LO2 cells assessed as reduction in cell viability after 72 hrs by MTT assay; type: cell-based; conditions: L02, 72 h
# HepG2 = assay: cells; conditions: Homo sapiens, HepG2, 72 h
# Description: Antiproliferative activity against human HepG2 cells assessed as reduction in cell viability after 72 hrs by MTT assay
# THP-1 = assay: Antiproliferative activity against human THP1 cells assessed as reduction in cell viability after 72 hrs by MTT assay; type: functional, cell-based; conditions: THP-1, 72 h
# physchem [16] = assay: physchem
# Description: Intrinsic solubility of compound by potentiometric titration assay
# [17] = Antiproliferative activity against human BGC803 cells assessed as reduction in cell viability after 72 hrs by MTT assay; type: functional, cell-based; conditions: BGC803, 72 h
# MV4-11 [18] = assay: Cell cycle arrest in human MV4-11 cells assessed as accumulation at S phase at 0.05 uM after 24 hrs propidium iodide staining based flow cytometry (reference value: 26.06%); type: functional
# MV4-11 [19] = assay: Induction of apoptosis in human MV4-11 cells assessed as decrease in MCL-1 expression after 4 hrs by Western blot analysis; type: functional, cell-based
# MV4-11 [20] = assay: Cell cycle arrest in human MV4-11 cells assessed as accumulation at G2 phase at 0.05 uM after 24 hrs propidium iodide staining based flow cytometry (reference value: 22.73%); type: functional
# MV4-11 [21] = assay: Antitumor activity against human MV4-11 cells xenografted in BALB/c mouse assessed as tumour growth inhibition at 15 mg/kg, iv administered every other day for 21 days relative to control; type: functional; conditions: MV4-11, iv, 504 h, read-out: TGI
# MV4-11 [22] = assay: Antitumor activity against human MV4-11 cells xenografted in BALB/c mouse assessed as tumour growth inhibition at 30 mg/kg, iv administered every other day for 21 days relative to control; type: functional; conditions: MV4-11, iv, 504 h, read-out: TGI
# HCT-116 = assay: cells; conditions: Homo sapiens, HCT-116, 72 h
# Description: Antiproliferative activity against human HCT116 cells assessed as reduction in cell viability after 72 hrs by MTT assay
# MV4-11 [23] = assay: Induction of apoptosis in human MV4-11 cells assessed as necrotic cells at 1.25 uM after 24 hrs by Annexin-V/propidium iodide staining based flow cytometric method (reference value: 2.64%); type: functional
# MV4-11 [24] = assay: Induction of apoptosis in human MV4-11 cells assessed as viable cells at 0.05 uM after 24 hrs by Annexin-V/propidium iodide staining based flow cytometric method (reference value: 96.94%); type: functional; conditions: MV4-11, 24 h, read-out: Activity
# MV4-11 [25] = assay: Induction of apoptosis in human MV4-11 cells assessed as necrotic cells at 0.25 uM after 24 hrs by Annexin-V/propidium iodide staining based flow cytometric method (reference value: 2.64%); type: functional
# MV4-11 [26] = assay: Induction of apoptosis in human MV4-11 cells assessed as decrease in c-MYC expression after 4 hrs by Western blot analysis; type: functional, cell-based
# MV4-11 [27] = assay: Induction of apoptosis in human MV4-11 cells by Annexin-V/propidium iodide staining based flow cytometric method; type: functional, cell-based
# HL-60 = assay: Antiproliferative activity against human HL60 cells assessed as reduction in cell viability after 72 hrs by MTT assay; type: functional, cell-based; conditions: HL-60, 72 h
# MV4-11 [28] = assay: cells; conditions: Homo sapiens, MV4-11, 72 h
# Description: Antiproliferative activity against human MV4-11 cells assessed as reduction in cell viability after 72 hrs by MTT assay
compound,measurement,setting,value
COc1cc(O)c2c(=O)cc(-c3ccc(N4CCN(C)CC4)cc3)oc2c1Oc1c(C)n[nH]c1C,Activity,MV4-11 [1],55.77%
same,inhibition in vivo at 45 mg/kg,MV4-11 [2],53%
same,IC50,RPMI-8226,820 nM
same,Activity,MV4-11 [3],13.32%
same,IC50,BT-549,1850 nM
same,Activity,MV4-11 [4],28.21%
same,solubility,physchem [5],4540 µg/mL
same,IC50,A549,1810 nM
same,Activity,MV4-11 [6],Dose-dependent effect
same,inhibition,[7],Dose-dependent effect
same,Activity,MV4-11 [8],9.01%
same,IC50,CCRF-CEM,1240 nM
same,Activity,MV4-11 [9],7.27%
same,IC50,HEK293,22100 nM
same,IC50,CDK2/Cyclin A2,913 nM
same,Activity,MV4-11 [10],7.29%
same,IC50,MCF7,480 nM
same,Activity,MV4-11 [11],12.42%
same,IC50,SW480,1860 nM
same,Activity,MV4-11 [12],inactive
same,Activity,[13],Non-Toxic
same,logD,physchem [14],2.01
same,Activity,MV4-11 [15],5.53%
same,IC50,L02,15100 nM
same,IC50,HepG2,2670 nM
same,IC50,THP-1,790 nM
same,solubility,physchem [16],28 µg/mL
same,IC50,[17],3120 nM
same,Activity,MV4-11 [18],33.91%
same,Activity,MV4-11 [19],Dose-dependent effect
same,Activity,MV4-11 [20],17.82%
same,inhibition in vivo at 15 mg/kg,MV4-11 [21],22.9%
same,inhibition in vivo at 30 mg/kg,MV4-11 [22],42.6%
same,IC50,HCT-116,390 nM
same,Activity,MV4-11 [23],6.46%
same,viability at 0.05 µM,MV4-11 [24],74.8%
same,Activity,MV4-11 [25],7.72%
same,Activity,MV4-11 [26],Dose-dependent effect
same,Activity,MV4-11 [27],Dose-dependent effect
same,IC50,HL-60,5210 nM
same,IC50,MV4-11 [28],20 nM
